What was measured:
[1] = Tolerance of intravenous infusion; format: in vivo, human patients; conditions: for side effect at infusion rate as high as 2 gm/kg/hr: i.v., some patients
Description: The amount of methylsulfonylmethane intravenously administered can vary substantially because of its lack of toxicity and adverse side effects. Individual doses can vary from about 0.01 to 2 gm/kg, preferably from about 0.1 to 1 gm/kg, on a body weight basis, the usual dosage range is about 0.25 to 0.75 gm/kg, preferably about 0.5 gm/kg.
When large amounts are administered, e.g., in the order of 1 g/kg of body weight or more, i.e., infusion of 5% to 10% solution of methylsulfonylmethane in water, physiological saline or 5% dextrose is preferred. The rate of administration is preferably no greater than about 1 gm/kg/hr, although infusion rates as high as 2 gm/kg/hr are tolerated by patients, except for light-headedness of the type experienced by some blood donors is experienced by some patients at this rate.
Such massive i.v. administrations can be repeated as frequently as every 24 hours.

[2] = system: nail growth; test: Nail growth in dogs (Example 6); format: in vivo, dog (female labradors); conditions: 5% in drinking water, 45 days
Excerpt: Rate of nail growth is an indication of the overall health of an animal. To determine the effect of methylsulfonylmethane on nail growth, two litter mate female labradors, age 8.5 months, were maintained in side by side straw bedded cages. Before any testing, the front paws of each dog were embedded in partially set plaster of paris, allowing the animals to exert full body weight, thereby obtaining good clear impressions of paw pads and nail length.
Each dog was fed Purina dog chow and water ad lib for 45 days. One of the dogs, (Animal A) had no ration change and the other (Animal B) was supplied only with water containing 5% of methylsulfonylmethane dissolved therein. After 45 days, plaster impressions of the front paws of each dog were again taken. Once the plaster had fully hardened the pre- and post-testing castings of each animal were compared. The straw bedding protected both animals from normal nail wear. On visual examination, the nails of Animal B, the animal receiving methylsulfonylmethane in its water, were obviously longer. Upon comparing the castings it was seen that Animal B had nails that averaged about 1/8 inch greater length than those of Animal A.

[3] = system: stress death; test: Stress death in fish (Example 10); format: in vivo, Goldfish; conditions: 2% by weight in feed, 25 fish; control 11 deaths
Description: 62 Goldfish, about 2 inches long, were divided into two 31 population lots and placed in acclimated aquariums (2) maintained at 50° F. On receipt of the fish, two small one gallon aquariums were filled with tap water and stablized for 5 days by aeration with an aerator/filter combination connected to a common aquarium air pump. Air delivery during the test period was standardized at 100 ml of air per minute. From a 1 oz. package of "Wardleys" goldfish food two 10 gram samples were removed. One sample was untreated and the other was moistened with about one ml of pure ethanol containing 0.2 gram methylsulfonylmethane in solution. The feed absorbed all the methylsulfonylmethane (the lot after air drying for 48 hours weighed 10.2 grams). Both feeds were pulverized to a coarse powder suitable for feeding small fish.
The 31 fish in each of the two holding aquariums were identified as batch A and batch B. During the acclimatization and test periods the batch A fish were fed 0.5 gram of untreated "Wardleys" food once daily. Batch B fish were fed 0.5 gram of the feed containing the methylsulfonylmethane during the acclimatization and test periods. Neither batch A nor B consumed all of the feed as some eventually collected in the fiberglass filter. However, most of each feeding was consumed in the first 5-10 minutes after delivery. […]

[4] = system: subjects in apparent good health; test: Maintenance of good health (Example 12); format: in vivo, human
Description: 14 subjects of both sexes, all in apparent good health, ages 33-59, were given oral methylsulfonylmethane in amounts ranging from 250 to 500 mg daily which maintained their blood levels above 1 ppm. These individuals were continued on methylsulfonylmethane, taken as a solution in orange juice for periods of from about seven months to over one year.

[5] = system: pain and inflammation of musculoskeletal system disorders; test: Pain associated with systemic inflammatory disorders (Example 15); format: in vivo, human
Excerpt: subject two, presented chronic arthritis with painful involvement of the lower trunk. Over the years they had evaluated most new antiarthritic, analgesic drugs with disappointing results.

[6] = system: Escherichia coli; test: In vitro antibacterial action; format: cell-based
Excerpt: (§1) While not as potent or toxic to microbial populations as specific drug agents, by reason of its extremely low host systemic toxicity, methylsulfonylmethane contrasts sharply with present antiinfective therapeutants and methodology. It is doubtful if chemical resistance will develop with infective agents controlled by high, but safe, systemic levels of methylsulfonylmethane.

[7] = system: Leuconostoc citrovorum; test: In vitro antibacterial action; format: cell-based
Excerpt: as §1

[8] = system: Salmonello typhimurium; test: In vitro antibacterial action; format: cell-based
Excerpt: as §1

[9] = system: Staphylococcus aureus; test: In vitro antibacterial action; format: cell-based
Excerpt: as §1

[10] = system: Streptococcus thermophilus; test: In vitro antibacterial action; format: cell-based
Excerpt: as §1

[11] = system: platelet count; test: Low platelet count in lupus erythematosus (Example 22); format: in vivo, human; conditions: 1.5 gm/day in 3 doses, 2-year period
Excerpt: Methylsulfonylmethane administered orally raised the platelet count of an adult with lupus erythematosus from 84,000 (after prednisone therapy) to 200,000 over a 2-year period (1.5 gm/day in 3 doses).

[12] = system: Trichomonas vaginalis; test: In vitro culture of Trichomonas vaginalis (Example 28(a)); format: cell-based, Trichomonas vaginalis Strain ATCC No. 30001
Description: Methylsulfonylmethane has highly variable toxicities for various nematodes. Based on this discovery, tests were conducted on several parasites adverse to the health of vertebrates
Strain ATCC No. 30001 was cultured in vitro employing diamonds tym medium. Methylsulfonylmethane was added thereto at levels varying from 5.5 to 109.3 mg/ml. At concentrations of 5.5 to 10.9 mg/ml, the methylsulfonylmethane had no effect on this protozoan.

[13] = cited from earlier work
[14] = system: lymphomas; conditions: oral, cited from earlier work
[15] = 250 to 500 mg daily, seven months to over one year

CS(C)(=O)=O [methylsulfonylmethane]
tolerated infusion rate ([1]; i.v. infusion): ≤ 2 gm/kg/hr
side effect at infusion rate as high as 2 gm/kg/hr [1]: light-headedness
side effect at infusion rate as high as 2 gm/kg/hr ([1]; listed as dimethylsulfone): transient light-headedness
greater average nail length vs Animal A [2]: about 1/8
deaths in aquarium by day ten [3]: one
blood level ([4]; 250 to 500 mg daily oral): above 1 ppm
illness during testing [4, 15]: None of the 14 became ill
reported well-being [4, 15]: feeling better and stronger with increased endurance
relief of pain and inflammation, musculoskeletal system disorders ([5]; about 100 up to about 5,000 mg per day): substantial and long lasting relief
relief in migraine sufferers ([5]; oral 50-500 mg per day): substantial relief
pain after about 16 months ([5]; subject two, 1/4-1/2 tsp. daily): substantially pain-free
pain relief by the end of the second week ([5]; subject two, chronic arthritis, 1/2 tsp. daily): almost total pain relief
in vitro antibacterial action [6]: weak
in vitro antibacterial action [7]: weak
in vitro antibacterial action [8]: weak
in vitro antibacterial action [9]: weak
in vitro antibacterial action [10]: weak
platelet count [11]: 200,000
lethal concentrations ([12]; all higher concentrations tested, to 109.3 mg/ml): > 21.9 mg/mL
activity relative to metronidazole HCL ([12]; in vitro, based on this assay): about half
concentration with no effect on this protozoan ([12]; in vitro, diamonds tym medium): 5.5 to 10.9 mg/mL
motor activity ([13]; i.p.): reduces
body temperature ([13]; rats exposed to 5° C.): lowers
development of lymphomas ([14]; compared with control): significant delay
tumor incidence ([14]; compared with control): decreased
joint involvement ([14]; only grossly examined): marked reduction
titer of primary IgM and secondary IgG [14]: increased titer
